In PubChem BioAssay AID1963825 (Molecular Pharmacology Branch, DTP, NCI, 2024) one finds viability, T/C and IC50 data, which are given here for 9 molecules.

Where “and” joins values, the source holds several entries; their conditions need not be identical. Identical values can stand only once.

This test in a line: Anticancer human tumor 997537-175-T-J1-PDC patient-derived colon adenocarcinoma cell line growth inhibition [POLQ]. The conditions noted are these: 997537-175-T-J1-PDC complex spheroid viability, combination with POLQ inhibitors; for viability, T/C: stronger effect = lower value. Here is the method:
Multicellular complex tumor spheroid response to Polymerase (POL) inhibitors (novobiocin, ART-558, RP6685) in combination with a variety of drugs and investigational agents in selected tumor cell lines
The POL inhibitors (novobiocin, ART-558, and RP6685) were evaluated both individually and in combination with standard of care and investigational anticancer small molecules within a complex spheroid model of solid tumors. . Complex spheroids include a stromal component modeled by human endothelial cells (HUVEC) and fibroblasts modeled by human mesenchymal stem cells (MSCs). The concentration ranges selected for each drug and investigational agent were based upon clinically achievable concentrations if the clinical Cmax of the agent was known.
Compounds. The drugs and investigational agents: novobiocin (NSC847541), ART-558 (NSC835418), RP-6685 (NSC848927), peposertib (NSC802822), ceralasertib (NSC780249), elimusertib (NSC800525), camonsertib (NSC841442), AZD-1390 (NSC803789), olaparib (NSC753686), talazoparib (NSC767125), rucaparib (NSC756644), sotorasib (NSC818433), MRTX-1133 (NSC836407), SN-38 (NSC673596), topotecan (NSC609699), epotoside (NSC141540), doxorubicin (NSC123127), gemcitabine (NSC613327), 5-fluorouracil (NSC19893), paclitaxel (NSC125973), vemurafenib (NSC761431), MSA-2 (NSC828583), SN-011 (NSC837082), adavosertib (NSC754352), prexasertib (NSC758257), carboplatin (NSC241240) and oxaliplatin (NSC266046), were obtained from the National Cancer Institute (NCI) Developmental Therapeutics Program Chemical Repository (21). The FDA-approved anticancer drug set is available from the Developmental Therapeutics Program at https://dtp.cancer.gov/organization/dscb/obtaining/. […] The stock solutions were prepared in dimethyl sulfoxide (DMSO, Sigma-Aldrich, St. Louis, MO, cat. D2650), except for the platinum compounds which were prepared in saline (Quality Biological, Gaithersburg, MD, cat. 114-055-101), at 800-fold the tested concentration and stored at -70 degrees C prior to their use. All drugs and investigational agents were tested over a range starting from a high concentration at or near the clinical Cmax and decreasing in half-log increments. If the clinical Cmax for an agent had not been determined, the highest concentration tested was 10 microM, except for SN-38, which was tested at a high concentration of 1 microM.
Cell Culture. All cells were maintained in an incubator at 37 degrees C and 5% CO2 with 95% humidity. The PDC lines were cultured according to standard operating procedures established by the NCI PDMR (https://pdmr.cancer.gov). Table 3 of the manuscript, lists the cell lines along with the number of the three cell types plated to form the mct-spheroids and media for tumor cell growth. After thawing, all PDC lines, except 997537-175-T-J1-PDC and 415267-285-R-J2-PDC, were cultured in Matrigel-coated flasks prepared with a working solution of 1X Ham's F-12 nutrient mix, without supplementation (Thermo Fisher Scientific, cat. 11765054), 100 U/mL penicillin-streptomycin (Thermo Fisher Scientific, cat. 15140122), and 2.5% Matrigel (Corning Inc., Corning, NY, cat. 354248) for the first three passages. The two PDC lines 997537-175-T-J1-PDC and 415267-285-R-J2-PDC were cultured on uncoated flasks. The 857933-349-R-J2-PDC line was cultured in 6C/Colon 1B media containing advanced DMEM/F-12 (Thermo Fisher Scientific, cat. 12634028), 10 mM HEPES (Thermo Fisher Scientific, cat. 15630080), 1X GlutaMAX supplement (Thermo Fisher Scientific, cat. 35050061), 0.1 mg/mL primocin (InvivoGen, San Diego, CA, cat. ant-pm-2), 10% defined fetal bovine serum, heat inactivated (HyClone Laboratories Inc., Logan, UT, cat. SH30070.03HI), 50% L-WRN conditioned media (ATCC, cat. CRL-3276), 1.25 mM N-Acetyl-L-cysteine (Sigma-Aldrich, cat. A9165), 10 mM nicotinamide (Sigma-Aldrich, cat. N0636), 1X B-27 supplement (Thermo Fisher Scientific, cat. 17504044), 1X N-2 supplement (Thermo Fisher Scientific, cat. […]

The mark [1] stands for this setting: compound alone, run of 12/05/2023.
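Also: luminescence signal used as a surrogate for viable cells; spheroids exposed to drugs for seven days before readout.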

With `COc1cc(C2c3cc4c(cc3C(OC3OC5COC(C)OC5C(O)C3O)C3COC(=O)C23)OCO4)cc(OC)c1O` (configuration not stated), the viability, T/C reads like this: (compound 0.0316 µM) 81.2% and 92.1% and 89.8%; (compound 0.1 µM) 90% and 102% and 100%; (compound 0.316 µM) 86.5% and 100% and 114%; (compound 1 µM) 102% and 92.9% and 99.7%; (compound 3.16 µM) 92.7% and 81% and 88.9%; (compound 10 µM) 76.3% and 68.8% and 51.7%. Moreover, for the setting “curve of compound”, the IC50 was above 10000 nM.
With `COc1cccc(OCCCN)c1-c1cc(Nc2cnc(C#N)cn2)n[nH]1`, the viability, T/C was 96.8% and 107% and 96.1% (compound 0.00316 µM); 106% and 98.4% and 92.4% (compound 0.01 µM); 54.1% and 72% and 72.3% (compound 0.0316 µM); 52.4% and 57.1% and 43.6% (compound 0.1 µM); 24.1% and 36.5% and 25.2% (compound 0.316 µM); 25.2% and 27.3% and 13.4% (compound 1 µM). The IC50 (curve of compound) is 65.8 nM and 135 nM and 80.1 nM.
In the case of `COc1cccc2c1C(=O)c1c(O)c3c(c(O)c1C2=O)CC(O)(C(=O)CO)CC3OC1CC(N)C(O)C(C)O1` (configuration not stated), the viability, T/C runs as follows: (compound 0.0316 µM) 91.6% and 101% and 113%; (compound 0.1 µM) 81.9% and 97% and 103%; (compound 0.316 µM) 87.3% and 68.5% and 110%; (compound 1 µM) 93.9% and 90% and 81.8%; (compound 3.16 µM) 57.7% and 37.8% and 27.6%; (compound 10 µM) 8.92% and 9.36% and 7.86%. For the same molecule, under “curve of compound”, the IC50 was 3790 nM and 2410 nM and 1970 nM.
Regarding `Cc1cccc(N(C)C(=O)C2C(O)CCN2c2nc(C)cc(C(F)(F)F)c2C#N)c1` (configuration not stated), the viability, T/C was 97.6% [middle of 13 runs] (compound 0.0316 µM); 98.6% [middle of 13 runs] (compound 0.1 µM); 97.3% [middle of 13 runs] (compound 0.316 µM); 101% [middle of 13 runs] (compound 1 µM); 101% [middle of 13 runs] (compound 3.16 µM); 96.9% [middle of 13 runs] (compound 10 µM). The IC50 is, setting by setting: (compound alone, run of 11/27/2023) above 10000 nM; under setting [1], above 10000 nM.
For the molecule `Cn1ncnc1[C@H]1c2n[nH]c(=O)c3cc(F)cc(c23)N[C@@H]1c1ccc(F)cc1`, the viability, T/C (compound 0.000316 µM) is 93.6% and 104% and 95.7%; the viability, T/C (compound 0.001 µM) was 114% and 96.4% and 80.4%; the viability, T/C (compound 0.00316 µM) was 80.6% and 115% and 106%; the viability, T/C (compound 0.01 µM) was 110% and 98.3% and 88.3%; the viability, T/C (compound 0.0316 µM) is 104% and 106% and 100%; the viability, T/C (compound 0.1 µM) was 94.7% and 98.2% and 90%. Also, the IC50 (curve of compound) is above 100 nM.
In the case of `Nc1ccc(C#CCN(C(=O)Cc2ncc(C(F)(F)F)cc2C(F)(F)F)c2ccc(F)cc2)nn1`, the viability, T/C is, setting by setting: (compound 0.0316 µM) 99.2% [middle of 13 runs]; (compound 0.1 µM) 97.2% [middle of 13 runs]; (compound 0.316 µM) 99.4% [middle of 13 runs]; (compound 3.16 µM) 98.6% [middle of 13 runs]; (compound 10 µM) 101% [middle of 13 runs]. Besides, the IC50 under setting [1] was above 10000 nM.
For `Nc1ccn(C2OC(CO)C(O)C2(F)F)c(=O)n1` (configuration not stated), the viability, T/C is, setting by setting: (compound 0.0316 µM) 104% (2×) and 98.4%; (compound 0.1 µM) 93.9% and 111% and 97.5%; (compound 0.316 µM) 85.7% and 84.1% and 75%; (compound 1 µM) 69.6% and 75.9% and 84.9%; (compound 3.16 µM) 80.9% and 85.4% and 87.5%; (compound 10 µM) 85% and 80% and 70.2%. Besides, under “curve of compound”, the IC50 was above 10000 nM.
For `O=C(c1cc(Cc2n[nH]c(=O)c3ccccc23)ccc1F)N1CCN(C(=O)C2CC2)CC1`, the viability, T/C is 98.8% and 31.4% and 107% (compound 0.0316 µM); 107% and 36% and 112% (compound 0.1 µM); 99.5% and 36% and 104% (compound 0.316 µM); 87.5% and 38% and 104% (compound 1 µM); 121% and 40.2% and 95.3% (compound 3.16 µM); 89.1% and 32.3% and 94.1% (compound 10 µM).
Take `O=c1[nH]cc(F)c(=O)[nH]1`: the viability, T/C (compound 0.0316 µM) was 86.3% and 95% and 102%; the viability, T/C (compound 0.1 µM) is 99.9% and 91.8% and 89.1%; the viability, T/C (compound 0.316 µM) is 108% and 90% and 106%; the viability, T/C (compound 1 µM) is 92.9% and 96.2% and 106%; the viability, T/C (compound 3.16 µM) was 102% and 92% and 105%; the viability, T/C (compound 10 µM) is 83.8% and 76.2% and 81.4%. Also, the IC50 (curve of compound) is above 10000 nM.

As usually defined, the viability, T/C is the ratio of treated to control. The IC50 is the concentration that inhibits the measured activity by half.
